Experimental data as given in patent US11267800B2, “Cyclohexyl acid triazole azines as LPA antagonists” (BRISTOL-MYERS SQUIBB COMPANY, priority 2017, dated 2022).

Assays:
IPF patients = details: 26-week clinical trial in IPF patients (Palmer et al.); cited from earlier work
human LPA1 = target: T1, human LPA1 (Homo sapiens, UniProt Q92633); assay: LPA1 functional antagonist assay (calcium flux); type: cell-based; details: CHO cells overexpressing human LPA1; inhibition of calcium flux induced by 10 nM LPA; read-out: hLPA1 IC50
T1 construct: expressed in transfected cells; host or cells: Chinese hamster ovary (CHO) cells
How it was run: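 IC50 values come from 4-parameter logistic fits and mark 50% block of the calcium flux evoked by 10 nM LPA. Human LPA1-overexpressing CHO cells were calcium-dye loaded at 37 °C, then given test compound (0.08 nM–5 μM, 0.5% DMSO, HEPES-buffered HBSS with 0.1% fatty-acid-free BSA) for 20 min at room temperature before agonist.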

nerve-injured mice = details: pretreatment, nerve-injured mice (Inoue et al.); cited from earlier work
[1] = system: pancreatic cancer cell lines; details: cited from earlier work
[2] = system: mouse epithelial renal cell line, MCT; details: co-treatment with LPA, MCT cells; cited from earlier work
[3] = system: human foetal lung fibroblasts; details: Tager et al.; cited from earlier work
UUO mice = details: cited from earlier work

T1 sequence (Q92633 whole entry): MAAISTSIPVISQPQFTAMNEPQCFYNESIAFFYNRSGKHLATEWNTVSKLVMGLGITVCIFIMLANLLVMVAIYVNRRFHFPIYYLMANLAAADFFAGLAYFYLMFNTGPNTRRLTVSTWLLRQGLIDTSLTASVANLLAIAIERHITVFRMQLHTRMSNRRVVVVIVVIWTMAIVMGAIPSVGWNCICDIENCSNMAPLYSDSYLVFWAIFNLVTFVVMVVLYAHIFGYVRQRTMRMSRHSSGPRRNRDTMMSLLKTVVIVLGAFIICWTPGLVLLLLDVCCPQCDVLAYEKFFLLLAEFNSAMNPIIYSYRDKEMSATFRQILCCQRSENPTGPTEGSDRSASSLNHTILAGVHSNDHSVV

| Structure (SMILES) | IC50 (human LPA1) | also measured |
| --- | --- | --- |
| Cc1noc(-c2ccc(-c3ccc(C4(C(=O)O)CC4)cc3)cc2)c1NC(=O)O[C@H](C)c1ccccc1 [BMS-986020] |  | rate of FVC (forced vital capacity) decline (IPF patients): significantly reduce |
| CCOc1cc(C2CCC2)nc(NCc2c(-c3ccc(O[C@H]4CCC[C@H](C(=O)O)C4)c(C)n3)nnn2C)n1 [Example 402] | 36 nM |  |
| Cn1nnc(-c2ccc(O[C@H]3CCC[C@H](C(=O)O)C3)cn2)c1CNc1ccnc(OCC2(C)CC2)n1 [Example 403] | 2310 nM |  |
| Cn1nnc(-c2ccc(O[C@H]3CCC[C@H](C(=O)O)C3)cn2)c1COc1nccc(C(F)(F)F)n1 [Example 404] | 173 nM |  |
| Cc1nc(-c2nnn(C)c2COc2cc(-n3ccnn3)ncn2)ccc1O[C@H]1CCC[C@H](C(=O)O)C1 [Example 405] | 129 nM |  |
| CC(C)c1ccnc(NCc2c(-c3ccc(O[C@H]4CCC[C@H](C(=O)O)C4)c(C#N)n3)nnn2C)n1 [Example 406] | 18 nM |  |
| Cn1nnc(-c2ccc(O[C@H]3CCC[C@H](C(=O)O)C3)c(C#N)n2)c1CNc1nccc(C(C)(C)C)n1 [Example 407] | 104 nM |  |
| CCCOc1ccnc(NCc2c(-c3ccc(O[C@H]4CCC[C@H](C(=O)O)C4)c(C#N)n3)nnn2C)n1 [Example 408] | 22 nM |  |
| C[C@@H](N)[C@H]1CC[C@H](C(=O)Nc2ccncc2)CC1 [Example Y-27632] |  | allodynia and hyperalgesia (nerve-injured mice): completely abolished |
| Cc1noc(-c2ccc(CSCCC(=O)O)cc2)c1NC(=O)OC(C)c1ccccc1Cl (centres unmarked) [Ki16425] |  | LPA-induced and ascites-induced invasion activity ([1]; highly peritoneal metastatic pancreatic cancer cell line (Yamada et al.)): blocked; in vitro migration in response to LPA and peritoneal fluid (ascites) from pancreatic cancer patients ([1]; pancreatic cancer cell lines (Yamada et al.)): effectively blocked; LPA-induced increase in expression of CTGF [2]: almost completely suppressed; chemotaxis of human foetal lung fibroblasts induced by BAL from IPF patients [3]: blocked; development of renal fibrosis (UUO mice): closely resembled the profile of LPA1 (−/−) mice |
